Source: BindingDB's records for patent US9018371 (Fm Therapeutics, 2015)

Target: T1, Adenosine receptor A3 (Homo sapiens, UniProt P0DMS8)
T1 sequence (P0DMS8 whole entry): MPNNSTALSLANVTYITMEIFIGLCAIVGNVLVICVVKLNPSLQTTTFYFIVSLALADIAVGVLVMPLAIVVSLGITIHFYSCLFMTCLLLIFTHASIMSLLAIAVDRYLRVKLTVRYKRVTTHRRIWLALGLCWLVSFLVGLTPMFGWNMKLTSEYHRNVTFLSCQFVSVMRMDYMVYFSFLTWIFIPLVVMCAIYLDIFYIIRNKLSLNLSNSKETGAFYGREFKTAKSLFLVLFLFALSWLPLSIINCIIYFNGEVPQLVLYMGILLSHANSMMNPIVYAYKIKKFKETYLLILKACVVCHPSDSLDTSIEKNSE
Test: Binding Assay
Method: Incubation for 1 hr in a 370C incubator was followed by rapid filtration in a vacuum using a cell collector (TOMTEC, U.S.A.). Subsequently, the test tubes were washed three times with 3 ml of the buffer before radioactivity was measured using a -counter.

## COc1ccccc1CNc1nc(Cl)nc2c1ncn2[C@@H]1SCC(O)[C@@H]1O (stereo partly specified) [US9018371, 7]
  Ki: 19.9 nM
